{"source": "patent US20050232924A1", "about": "“Antibodies and/or conjugates thereof which bind to the amino terminal fragment of urokinase, compositions and uses thereof” (Attenuon LLC, priority 2003, published 2005)", "key": {"MDA-MB-231 cells [1]": {"tested_on": "MDA-MB-231 cells", "assay": "Distribution of Dox by fluorescence microscopy", "format": "cell-based, human", "settings": "1.6 μM, 24 h; FIG. 14", "procedure": "To further characterize the ATN-291-Dox conjugates the distribution of Dox was monitored by fluorescence microscopy. MDA-MB-231 cells grown on glass chamber slides were incubated with either 1.6 μM Dox or 1.6 μM ATN-291-Dox for 24 h under the same conditions used for the MTT assay. Following incubation, the supernatant was removed and the cells washed extensively with PBS. Cells were fixed in paraformaldehyde, mounted and observed by fluorescence microscopy."}, "MDA-MB-231 cells [2]": {"tested_on": "MDA-MB-231 cells", "assay": "MTT proliferation assay", "format": "cell-based, human", "settings": "10 μM; FIG. 13A", "procedure": "The ability of ATN-291-Dox to inhibit proliferation of MDA-MB-231 cells was tested in an MTT assay. […] A dose titration was performed with the ATN-291-Dox conjugate. As shown in FIG. 10B the conjugate inhibited proliferation with an IC-50 of ˜1.6 μM."}}, "data": [{"smiles": "COc1cccc2c1C(=O)c1c(O)c3c(c(O)c1C2=O)C[C@@](O)(C(=O)CO)C[C@@H]3O[C@H]1C[C@H](N)[C@H](O)[C@H](C)O1", "note": "[Dox, doxorubicin]", "values": [{"measurement": "cellular localization of Dox fluorescence", "setting": "MDA-MB-231 cells [1]", "value": "primarily localized to the nucleus of treated cells"}, {"measurement": "effect on cell proliferation", "setting": "MDA-MB-231 cells [2]", "value": "significantly inhibited proliferation"}]}]}
